The source of these data is patent US8834930B2, “Pulmonary delivery of a fluoroquinolone” (Novartis AG, priority 2008, dated 2014).

Series [1] is described as follows: Surface properties (BET specific surface area, porosity, rugosity). Format: physicochemical. From the text: As used herein, specific surface area (SSA) refers to the SSA calculated from gas adsorption data according to a theory developed by Brunauer, Emmett, and Teller (J Amer Chem Soc 1938, 60:309), generally referred to as the BET method.
As used herein, particle porosity refers to the total pore volume in %, calculated from nitrogen gas absorption data. In nitrogen adsorption, the pores are filled (and emptied) according to the Kelvin capillary condensation equation. As the partial pressure of nitrogen increases, condensation of the gas will begin in the smaller pores and progressively fill larger and larger pores until bulk condensation occurs. Using this technique, nitrogen is first condensed in the pores by setting the partial pressure of nitrogen to a value near saturation. Then, the nitrogen is gradually desorbed in a stepwise fashion by reducing its vapor pressure. The pore size distribution is calculated by analyzing the nitrogen desorption isotherm using the Kelvin equation to determine the amount of condensed nitrogen in the pores (assuming a cylindrical pore geometry), wherein the adsorptive loss at each step represents the core volume of pores emptied during that step. The calculation is automated, and follows the algorithm proposed by Barrett et al (Barrett E P, Joyner L G, Halenda P P: The determination of pore volume and area distributions in porous substances I. computations from nitrogen isotherms. J Amer Chem Soc 1951, 73:373-380). This approach holds for pore diameters as small as about 2 nm, i.e., down to the […] region.
Rugosity (Sv) is a measure of the surface roughness of an engineered powder. For the purposes of this invention, rugosity is calculated from the specific surface area obtained from BET measurements, the true density obtained by helium pycnometry, and the surface/volume ratio of the particle obtained by laser diffraction (Sympatec), viz:
Significant increases in specific surface area, porosity, and rugosity Sv are observed for the phospholipid-coated particles relative to micronized drug. […]

Series [2] can be described thus: Powder dispersibility, laser diffraction with varied RODOS dispersing pressure. Format: physicochemical. The following applies: dispersing pressure 0.2 bar.
Method: As used herein, the relative dispersibility of spray-dried powders is determined with the Sympatec (laser diffraction) by varying the dispersing pressure of the RODOS dispersion unit, from about 0.2 bar to 4.0 bar. As used herein, the dispersibility index, δ (delta), is defined as the ratio of the x50 measured at a dispersing pressure of 0.2 bar to that at 4.0 bar.
The relative dispersibility of powder formulations can be studied with the laser diffraction technique by varying the dispersing pressure in the RODOS disperser. […] The ratio of the median particle sizes measured at low and high dispersing pressures is a measure of the dispersibility of the powder.
For series [3] the following is noted: background; cited from earlier work.

With `O=C(O)c1cn(C2CC2)c2cc(N3CCNCC3)c(F)cc2c1=O` [Lot BXA1GE7], the “Rugosity Sv” value in series [1] (API shape factor = 1.27) stood at 1.1. Also, the “Specific Surface Area” value in series [1] (BET) turned out to be 4.4 m^2/g. The “Sympatec Sv” value in series [1] (laser diffraction) is reported as 4.91 m^2/cm^3. Consider `O=C(O)c1cn(C2CC2)c2cc(N3CCNCC3)c(F)cc2c1=O` [ciprofloxacin betaine], for which the x50 in series [2] was found to be 3.5 μm. Regarding `O=C(O)c1cn(C2CC2)c2cc(N3CCNCC3)c(F)cc2c1=O` [ciprofloxacin], the pK1 in series [3] is on record as 6.0.
